Source: US9636418B2 (priority 2013, dated 2017)
Values joined by “and” are separate entries in the source; they are usually repeats but may differ in a detail not shown here. Equal entries are not always repeated.

Experiments:
Assay in all cases: cell-based
hNav1.4 = hNav1.4 (Homo sapiens, UniProt P35499); details: for IC50: IonWorks Quattro, read-out: IC50 Nav1.4
hNav1.7 = hNav1.7 (Homo sapiens, UniProt Q15858); details: IonWorks Quattro; read-out: IC50 Nav1.7
hNav1.5 = hNav1.5 (Homo sapiens, UniProt Q14524); details: IonWorks Quattro; read-out: IC50 Nav1.5
hNav1.3 = hNav1.3 (Homo sapiens, UniProt Q9NY46); details: IonWorks Quattro; read-out: IC50 Nav1.3

Chain of hNav1.5 (Q14524 whole entry): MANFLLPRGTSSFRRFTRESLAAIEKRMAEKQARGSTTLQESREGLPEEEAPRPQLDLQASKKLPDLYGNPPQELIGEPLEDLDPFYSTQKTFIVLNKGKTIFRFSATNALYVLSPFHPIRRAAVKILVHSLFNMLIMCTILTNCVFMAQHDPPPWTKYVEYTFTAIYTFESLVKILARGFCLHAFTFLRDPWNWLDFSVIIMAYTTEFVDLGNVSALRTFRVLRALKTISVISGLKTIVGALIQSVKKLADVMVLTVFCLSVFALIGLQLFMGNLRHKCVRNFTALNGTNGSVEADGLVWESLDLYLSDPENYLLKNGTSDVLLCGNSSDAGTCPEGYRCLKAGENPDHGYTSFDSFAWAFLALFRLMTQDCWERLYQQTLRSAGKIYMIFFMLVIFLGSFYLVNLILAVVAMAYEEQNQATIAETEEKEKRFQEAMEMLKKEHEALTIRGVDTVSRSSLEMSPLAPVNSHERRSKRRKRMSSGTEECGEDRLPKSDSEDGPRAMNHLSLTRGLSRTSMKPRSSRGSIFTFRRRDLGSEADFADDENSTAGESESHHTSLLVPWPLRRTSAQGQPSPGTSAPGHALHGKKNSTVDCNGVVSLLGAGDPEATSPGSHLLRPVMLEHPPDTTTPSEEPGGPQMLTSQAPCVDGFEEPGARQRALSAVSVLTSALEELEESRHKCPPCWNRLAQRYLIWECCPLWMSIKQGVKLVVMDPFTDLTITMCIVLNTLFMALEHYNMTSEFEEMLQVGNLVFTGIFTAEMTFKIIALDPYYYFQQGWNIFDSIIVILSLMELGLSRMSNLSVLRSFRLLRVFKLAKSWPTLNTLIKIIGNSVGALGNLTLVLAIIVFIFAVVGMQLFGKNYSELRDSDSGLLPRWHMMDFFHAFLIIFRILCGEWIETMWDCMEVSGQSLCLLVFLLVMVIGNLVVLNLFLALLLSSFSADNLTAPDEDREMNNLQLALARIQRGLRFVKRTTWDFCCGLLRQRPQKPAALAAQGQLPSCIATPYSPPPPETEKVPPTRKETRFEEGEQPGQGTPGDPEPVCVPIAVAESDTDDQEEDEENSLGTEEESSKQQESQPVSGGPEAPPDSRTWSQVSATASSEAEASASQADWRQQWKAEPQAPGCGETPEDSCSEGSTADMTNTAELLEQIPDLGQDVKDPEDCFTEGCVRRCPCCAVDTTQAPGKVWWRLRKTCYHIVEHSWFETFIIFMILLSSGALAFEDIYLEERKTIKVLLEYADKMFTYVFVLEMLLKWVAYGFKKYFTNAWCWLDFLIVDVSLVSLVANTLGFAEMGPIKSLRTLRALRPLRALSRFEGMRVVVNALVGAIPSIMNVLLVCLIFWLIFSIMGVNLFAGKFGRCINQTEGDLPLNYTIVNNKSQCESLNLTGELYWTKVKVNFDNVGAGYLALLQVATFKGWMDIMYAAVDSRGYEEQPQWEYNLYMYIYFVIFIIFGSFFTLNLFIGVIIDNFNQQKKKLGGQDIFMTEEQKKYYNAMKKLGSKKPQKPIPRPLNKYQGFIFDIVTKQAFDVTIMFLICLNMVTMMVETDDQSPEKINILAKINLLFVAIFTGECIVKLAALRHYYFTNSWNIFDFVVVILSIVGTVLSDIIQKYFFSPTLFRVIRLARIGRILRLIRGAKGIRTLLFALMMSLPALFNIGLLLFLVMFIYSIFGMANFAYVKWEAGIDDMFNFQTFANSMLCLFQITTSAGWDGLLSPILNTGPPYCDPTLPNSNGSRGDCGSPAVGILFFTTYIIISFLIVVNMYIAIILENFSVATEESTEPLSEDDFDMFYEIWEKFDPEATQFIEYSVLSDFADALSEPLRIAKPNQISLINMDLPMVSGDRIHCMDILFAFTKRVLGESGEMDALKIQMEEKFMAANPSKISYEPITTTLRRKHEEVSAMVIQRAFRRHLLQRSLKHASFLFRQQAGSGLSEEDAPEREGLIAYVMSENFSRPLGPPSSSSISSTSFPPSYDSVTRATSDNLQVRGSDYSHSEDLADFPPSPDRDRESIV
Chain of hNav1.4 (P35499 whole entry): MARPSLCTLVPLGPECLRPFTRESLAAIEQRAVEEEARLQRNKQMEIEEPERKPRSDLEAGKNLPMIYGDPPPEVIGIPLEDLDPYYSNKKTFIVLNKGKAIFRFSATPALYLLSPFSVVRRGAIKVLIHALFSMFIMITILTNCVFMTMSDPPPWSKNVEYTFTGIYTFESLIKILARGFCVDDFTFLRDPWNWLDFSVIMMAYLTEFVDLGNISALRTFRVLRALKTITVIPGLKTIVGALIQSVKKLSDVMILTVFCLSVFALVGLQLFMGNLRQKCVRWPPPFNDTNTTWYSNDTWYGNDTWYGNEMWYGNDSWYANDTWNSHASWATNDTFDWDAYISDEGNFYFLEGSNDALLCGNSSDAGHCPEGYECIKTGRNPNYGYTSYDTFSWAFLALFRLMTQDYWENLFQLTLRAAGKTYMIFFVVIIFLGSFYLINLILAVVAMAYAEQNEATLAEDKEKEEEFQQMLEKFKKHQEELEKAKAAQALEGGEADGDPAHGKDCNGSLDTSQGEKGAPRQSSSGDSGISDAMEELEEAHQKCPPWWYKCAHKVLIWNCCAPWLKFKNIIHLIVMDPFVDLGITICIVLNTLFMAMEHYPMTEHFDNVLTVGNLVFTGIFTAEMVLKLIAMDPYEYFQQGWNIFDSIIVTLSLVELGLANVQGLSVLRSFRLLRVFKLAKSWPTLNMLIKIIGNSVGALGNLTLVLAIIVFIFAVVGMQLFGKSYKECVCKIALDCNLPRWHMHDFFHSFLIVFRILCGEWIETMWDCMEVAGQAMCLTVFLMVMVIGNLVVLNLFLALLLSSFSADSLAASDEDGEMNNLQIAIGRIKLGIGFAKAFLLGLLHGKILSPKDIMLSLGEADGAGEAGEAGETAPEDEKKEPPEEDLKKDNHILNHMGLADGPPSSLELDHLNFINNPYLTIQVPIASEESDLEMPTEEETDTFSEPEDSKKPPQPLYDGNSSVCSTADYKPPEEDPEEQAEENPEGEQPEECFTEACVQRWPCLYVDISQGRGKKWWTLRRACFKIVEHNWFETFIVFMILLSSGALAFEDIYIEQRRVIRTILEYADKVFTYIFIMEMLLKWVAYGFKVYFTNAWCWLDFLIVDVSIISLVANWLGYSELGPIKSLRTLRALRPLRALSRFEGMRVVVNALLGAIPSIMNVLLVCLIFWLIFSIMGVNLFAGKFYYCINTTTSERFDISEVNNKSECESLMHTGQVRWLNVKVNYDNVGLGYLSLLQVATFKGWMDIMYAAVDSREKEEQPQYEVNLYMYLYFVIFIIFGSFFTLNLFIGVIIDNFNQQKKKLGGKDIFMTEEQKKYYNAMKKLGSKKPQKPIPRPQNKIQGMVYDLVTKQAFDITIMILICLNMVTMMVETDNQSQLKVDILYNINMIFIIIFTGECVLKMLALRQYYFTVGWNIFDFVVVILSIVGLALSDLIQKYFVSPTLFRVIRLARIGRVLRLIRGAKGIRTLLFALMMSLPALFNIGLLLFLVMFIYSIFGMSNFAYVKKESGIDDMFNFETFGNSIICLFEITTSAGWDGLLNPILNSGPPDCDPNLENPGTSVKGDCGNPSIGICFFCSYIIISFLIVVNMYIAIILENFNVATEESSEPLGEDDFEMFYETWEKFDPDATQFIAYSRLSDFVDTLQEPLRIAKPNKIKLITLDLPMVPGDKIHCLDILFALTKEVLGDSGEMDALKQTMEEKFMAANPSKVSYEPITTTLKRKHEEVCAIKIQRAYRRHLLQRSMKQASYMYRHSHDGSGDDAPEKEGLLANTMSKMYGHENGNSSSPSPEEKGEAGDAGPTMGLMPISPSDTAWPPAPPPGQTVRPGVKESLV

`CC[C@H](C)[C@H](NC(=O)[C@H](Cc1ccc(O)cc1)NC(=O)[C@H](CCCCN)NC(=O)[C@H](CCCNC(=N)N)NC(=O)[C@@H]1CSSC[C@@H]2NC(=O)[C@H](C)NC(=O)[C@H](CCCNC(=N)N)NC(=O)[C@H](CCCCN)NC(=O)[C@H](CO)NC(=O)[C@H](CC(=O)O)NC(=O)[C@@H]3CSSC[C@H](NC(=O)[C@H](CCC(=O)O)NC(=O)[C@H](CC(C)C)NC(=O)CNC(=O)[C@H](CCC(=O)O)NC(=O)[C@H](CSSC[C@H](NC(=O)[C@@H](N)Cc4ccc(O)cc4)C(=O)N[C@@H](CCC(N)=O)C(=O)N[C@@H](CCCCN)C(=O)N[C@@H](CCCCN)C(=O)N[C@@H](CCSC)C(=O)N[C@@H](Cc4c[nH]c5ccccc45)C(=O)N[C@@H]([C@@H](C)O)C(=O)N3)NC2=O)C(=O)N[C@@H](CCCCN)C(=O)N[C@@H](CC(C)C)C(=O)N[C@@H](Cc2c[nH]c3ccccc23)C(=O)N1)C(N)=O` [compound 200] showed an IC50 (hNav1.4) greater than 5 µM, an IC50 (hNav1.7) greater than 5 µM and an IC50 (hNav1.5) greater than 5 µM. The IC50 (hNav1.3) was greater than 5 µM.

With `CC[C@H](C)[C@H](NC(=O)[C@H](Cc1ccc(O)cc1)NC(=O)[C@H](CCCCN)NC(=O)[C@H](CCCNC(=N)N)NC(=O)[C@@H]1CSSC[C@@H]2NC(=O)[C@H](C)NC(=O)[C@H](CCCNC(=N)N)NC(=O)[C@H](CCCCN)NC(=O)[C@H](CO)NC(=O)[C@H](CC(=O)O)NC(=O)[C@@H]3CSSC[C@H](NC(=O)[C@H](CCC(=O)O)NC(=O)[C@H](CC(C)C)NC(=O)CNC(=O)[C@H](CCC(=O)O)NC(=O)[C@H](CSSC[C@H](NC(=O)[C@@H](N)Cc4ccc(O)cc4)C(=O)N[C@@H](CCC(N)=O)C(=O)N[C@@H](CCCCN)C(=O)N[C@@H](CC(N)=O)C(=O)N[C@@H](CCSC)C(=O)N[C@@H](Cc4c[nH]c5ccccc45)C(=O)N[C@@H]([C@@H](C)O)C(=O)N3)NC2=O)C(=O)N[C@@H](CCCCN)C(=O)N[C@@H](CC(C)C)C(=O)N[C@@H](Cc2c[nH]c3ccccc23)C(=O)N1)C(N)=O` [compound 201] the IC50 (hNav1.4) was greater than 5 µM, the IC50 (hNav1.7) was 4.2 µM and > 5 µM and the IC50 (hNav1.5) was greater than 5 µM. For the same molecule, the IC50 (hNav1.3) was greater than 5 µM.

For `CC[C@H](C)[C@H](NC(=O)[C@H](Cc1ccc(O)cc1)NC(=O)[C@H](CCCCN)NC(=O)[C@H](CCCNC(=N)N)NC(=O)[C@@H]1CSSC[C@@H]2NC(=O)[C@H](C)NC(=O)[C@H](CCCNC(=N)N)NC(=O)[C@H](CCCCN)NC(=O)[C@H](CO)NC(=O)[C@H](CC(=O)O)NC(=O)[C@@H]3CSSC[C@H](NC(=O)[C@H](CCC(=O)O)NC(=O)[C@H](CC(C)C)NC(=O)CNC(=O)[C@H](CCC(=O)O)NC(=O)[C@H](CSSC[C@H](NC(=O)[C@@H](N)Cc4ccc(O)cc4)C(=O)N[C@@H](CCC(N)=O)C(=O)N[C@@H](CCCCN)C(=O)N[C@@H](CCC(=O)O)C(=O)N[C@@H](CCSC)C(=O)N[C@@H](Cc4c[nH]c5ccccc45)C(=O)N[C@@H]([C@@H](C)O)C(=O)N3)NC2=O)C(=O)N[C@@H](CCCCN)C(=O)N[C@@H](CC(C)C)C(=O)N[C@@H](Cc2c[nH]c3ccccc23)C(=O)N1)C(N)=O` [compound 203], the IC50 (hNav1.4) was greater than 7 µM, the IC50 (hNav1.7) was greater than 7 µM and the IC50 (hNav1.5) was greater than 7 µM. The IC50 (hNav1.3) was greater than 7 µM.

With `CCC[C@@H]1NC(=O)[C@H](CCSC)NC(=O)[C@H](Cc2c[nH]c3ccccc23)NC(=O)[C@H](CCCCN)NC(=O)[C@H](CCC(N)=O)NC(=O)[C@@H](NC(=O)[C@@H](N)Cc2ccc(O)cc2)CSSC[C@@H]2NC(=O)[C@@H]3CSSC[C@@H](C(=O)N[C@@H](CCCNC(=N)N)C(=O)N[C@@H](CCCCN)C(=O)N[C@@H](Cc4ccc(O)cc4)C(=O)N[C@H](C(N)=O)[C@@H](C)CC)NC(=O)[C@H](Cc4c[nH]c5ccccc45)NC(=O)[C@H](CC(C)C)NC(=O)[C@H](CCCCN)NC(=O)[C@H](CSSC[C@H](NC(=O)[C@H]([C@@H](C)O)NC1=O)C(=O)N[C@@H](CC(=O)O)C(=O)N[C@@H](CO)C(=O)N[C@@H](CCCCN)C(=O)N[C@@H](CCCNC(=N)N)C(=O)N[C@@H](C)C(=O)N3)NC(=O)[C@H](CCC(=O)O)NC(=O)[C@H](CC(C)C)NC(=O)CNC(=O)[C@H](CCC(=O)O)NC2=O` [compound 212] the IC50 (hNav1.4) was greater than 7 µM, the IC50 (hNav1.7) was 4.5 µM and the IC50 (hNav1.5) was greater than 7 µM. It also gave an IC50 (hNav1.3) greater than 7 µM.

Molecule `CC[C@H](C)[C@H](NC(=O)[C@H](Cc1ccc(O)cc1)NC(=O)[C@H](CCCCN)NC(=O)[C@H](CCCNC(=N)N)NC(=O)[C@@H]1CSSC[C@@H]2NC(=O)[C@H](C)NC(=O)[C@H](CCCNC(=N)N)NC(=O)[C@H](CCCCN)NC(=O)[C@H](CO)NC(=O)[C@H](CC(=O)O)NC(=O)[C@@H]3CSSC[C@H](NC(=O)[C@H](CCC(=O)O)NC(=O)[C@H](CC(C)C)NC(=O)CNC(=O)[C@H](CCC(=O)O)NC(=O)[C@H](CSSC[C@H](NC(=O)[C@@H](N)Cc4ccc(O)cc4)C(=O)N[C@@H](CCC(N)=O)C(=O)N[C@@H](CCCCN)C(=O)N[C@@H](Cc4c[nH]c5ccccc45)C(=O)N[C@@H](CCSC)C(=O)N[C@@H](CCCNC(N)=O)C(=O)N[C@@H]([C@@H](C)O)C(=O)N3)NC2=O)C(=O)N[C@@H](CCCCN)C(=O)N[C@@H](CC(C)C)C(=O)N[C@@H](Cc2c[nH]c3ccccc23)C(=O)N1)C(N)=O` [compound 213] has an IC50 (hNav1.4) greater than 7 µM, an IC50 (hNav1.7) of 5.8 µM and an IC50 (hNav1.5) greater than 7 µM. The IC50 (hNav1.3) was greater than 7 µM.

`CC[C@H](C)[C@H](NC(=O)[C@H](Cc1ccc(O)cc1)NC(=O)[C@H](CCCCN)NC(=O)[C@H](CCCNC(=N)N)NC(=O)[C@@H]1CSSC[C@@H]2NC(=O)[C@H](C)NC(=O)[C@H](CCCNC(=N)N)NC(=O)[C@H](CCCCN)NC(=O)[C@H](CO)NC(=O)[C@H](CC(=O)O)NC(=O)[C@@H]3CSSC[C@H](NC(=O)[C@H](CCC(=O)O)NC(=O)[C@H](CC(C)C)NC(=O)CNC(=O)[C@H](CCC(=O)O)NC(=O)[C@H](CSSC[C@H](NC(=O)[C@@H](N)Cc4ccc(O)cc4)C(=O)N[C@@H](CCC(N)=O)C(=O)N[C@@H](CCCCN)C(=O)N[C@@H](Cc4c[nH]c5ccccc45)C(=O)N[C@@H](CCSC)C(=O)N[C@@H](CCCCN)C(=O)N[C@@H]([C@@H](C)O)C(=O)N3)NC2=O)C(=O)N[C@@H](CCCCN)C(=O)N[C@@H](CC(C)C)C(=O)N[C@@H](Cc2c[nH]c3ccccc23)C(=O)N1)C(N)=O` [compound 214] was tested, and the IC50 (hNav1.4) was greater than 7 µM, the IC50 (hNav1.7) was 2.7 µM and the IC50 (hNav1.5) was greater than 7 µM. The IC50 (hNav1.3) was greater than 7 µM.

`CC[C@H](C)[C@H](NC(=O)[C@H](Cc1ccc(O)cc1)NC(=O)[C@H](CCCCN)NC(=O)[C@H](CCCNC(=N)N)NC(=O)[C@@H]1CSSC[C@@H]2NC(=O)[C@H](C)NC(=O)[C@H](CCCNC(=N)N)NC(=O)[C@H](CCCCN)NC(=O)[C@H](CO)NC(=O)[C@H](CC(=O)O)NC(=O)[C@@H]3CSSC[C@H](NC(=O)[C@H](CCC(=O)O)NC(=O)[C@H](CC(C)C)NC(=O)CNC(=O)[C@H](CCC(=O)O)NC(=O)[C@H](CSSC[C@H](NC(=O)[C@@H](N)Cc4ccc(O)cc4)C(=O)N[C@@H](CCC(N)=O)C(=O)N[C@@H](CCCCN)C(=O)N[C@@H](Cc4c[nH]c5ccccc45)C(=O)N[C@@H](CCSC)C(=O)N[C@@H](CC(N)=O)C(=O)N[C@@H]([C@@H](C)O)C(=O)N3)NC2=O)C(=O)N[C@@H](CCCCN)C(=O)N[C@@H](CC(C)C)C(=O)N[C@@H](Cc2c[nH]c3ccccc23)C(=O)N1)C(N)=O` [compound 215] showed an IC50 (hNav1.4) of 6.1 µM, a Nav1.4/Nav1.7 (hNav1.4; ratio of IonWorks Quattro IC50 values) of 1 and an IC50 (hNav1.7) of 5 µM. The IC50 (hNav1.5) was greater than 7 µM and the IC50 (hNav1.3) was greater than 7 µM.

In the case of `CC[C@H](C)[C@H](NC(=O)[C@H](Cc1ccc(O)cc1)NC(=O)[C@H](CCCCN)NC(=O)[C@H](CCCNC(=N)N)NC(=O)[C@@H]1CSSC[C@@H]2NC(=O)[C@H](C)NC(=O)[C@H](CCCNC(=N)N)NC(=O)[C@H](CCCCN)NC(=O)[C@H](CO)NC(=O)[C@H](CC(=O)O)NC(=O)[C@@H]3CSSC[C@H](NC(=O)[C@H](CCC(=O)O)NC(=O)[C@H](CC(C)C)NC(=O)CNC(=O)[C@H](CCC(=O)O)NC(=O)[C@H](CSSC[C@H](NC(=O)[C@@H](N)Cc4ccc(O)cc4)C(=O)N[C@@H](CCC(N)=O)C(=O)N[C@@H](CCCCN)C(=O)N[C@@H](Cc4c[nH]c5ccccc45)C(=O)N[C@@H](CCSC)C(=O)N[C@@H](CO)C(=O)N[C@@H]([C@@H](C)O)C(=O)N3)NC2=O)C(=O)N[C@@H](CCCCN)C(=O)N[C@@H](CC(C)C)C(=O)N[C@@H](Cc2c[nH]c3ccccc23)C(=O)N1)C(N)=O` [compound 216], the IC50 (hNav1.4) is reported as greater than 7 µM, the IC50 (hNav1.7) is reported as 4.7 µM and 6.6 µM and the IC50 (hNav1.5) is reported as > 7 µM and 5.4 µM. The IC50 (hNav1.3) was greater than 7 µM.

Work on `CC[C@H](C)[C@H](NC(=O)[C@H](Cc1ccc(O)cc1)NC(=O)[C@H](CCCCN)NC(=O)[C@H](CCCNC(=N)N)NC(=O)[C@@H]1CSSC[C@@H]2NC(=O)[C@H](C)NC(=O)[C@H](CCCNC(=N)N)NC(=O)[C@H](CCCCN)NC(=O)[C@H](CO)NC(=O)[C@H](CC(=O)O)NC(=O)[C@@H]3CSSC[C@H](NC(=O)[C@H](CCC(=O)O)NC(=O)[C@H](CC(C)C)NC(=O)CNC(=O)[C@H](CCC(=O)O)NC(=O)[C@H](CSSC[C@H](NC(=O)[C@@H](N)Cc4ccc(O)cc4)C(=O)N[C@@H](CCC(N)=O)C(=O)N[C@@H](CCCCN)C(=O)N[C@@H](Cc4c[nH]c5ccccc45)C(=O)N[C@@H](CCSC)C(=O)N[C@@H](CCC(=O)O)C(=O)N[C@@H]([C@@H](C)O)C(=O)N3)NC2=O)C(=O)N[C@@H](CCCCN)C(=O)N[C@@H](CC(C)C)C(=O)N[C@@H](Cc2c[nH]c3ccccc23)C(=O)N1)C(N)=O` [compound 217] yielded an IC50 (hNav1.4) greater than 7 µM, an IC50 (hNav1.7) greater than 7 µM and an IC50 (hNav1.5) greater than 7 µM. For the same molecule, the IC50 (hNav1.3) was greater than 7 µM.

For `CC[C@H](C)[C@H](NC(=O)[C@H](Cc1ccc(O)cc1)NC(=O)[C@H](CCCCN)NC(=O)[C@H](CCCNC(=N)N)NC(=O)[C@@H]1CSSC[C@@H]2NC(=O)[C@H](C)NC(=O)[C@H](CCCNC(=N)N)NC(=O)[C@H](CCCCN)NC(=O)[C@H](CO)NC(=O)[C@H](CC(=O)O)NC(=O)[C@@H]3CSSC[C@H](NC(=O)[C@H](CCC(=O)O)NC(=O)[C@H](CC(C)C)NC(=O)CNC(=O)[C@H](CCC(=O)O)NC(=O)[C@H](CSSC[C@H](NC(=O)[C@@H](N)Cc4ccc(O)cc4)C(=O)N[C@@H](CCC(N)=O)C(=O)N[C@@H](CCCCN)C(=O)N[C@@H](Cc4c[nH]c5ccccc45)C(=O)N[C@@H](CCSC)C(=O)N[C@@H](Cc4c[nH]c5ccccc45)C(=O)N[C@@H]([C@@H](C)O)C(=O)N3)NC2=O)C(=O)N[C@@H](CCCCN)C(=O)N[C@@H](CC(C)C)C(=O)N[C@@H](Cc2ccc3ccccc3c2)C(=O)N1)C(N)=O` [compound 219], the IC50 (hNav1.4) was greater than 7 µM, the IC50 (hNav1.7) was 0.86 µM and 1 µM and the IC50 (hNav1.5) was greater than 7 µM. For the same molecule, the IC50 (hNav1.3) was greater than 7 µM.
